Laboratory results reported in PMC6272685, “Docking and Antiherpetic Activity of 2-Aminobenzo[de]-isoquinoline-1,3-diones” (Molecules, 2015).
Values after ≈ are worked out from the molar mass of the structure shown. Like-named read-outs stand apart in the source and are kept apart here.

Experiments:
HSV-1 = test: cytopathic effect inhibition assay against HSV-1 in Vero cells; format: cell-based, herpes simplex virus 1 (GHSV-UL46); settings: for EC50: Human alphaherpesvirus 1, Vero, read-out: HSV-1 EC50; for EC50 / HSV-1 EC50: 48 h; for HSV-1 EC50: Vero cells, cytopathic effect inhibition; for antiviral activity against HSV-1 in words: in comparison with compounds 14–16; for HSV-1 SI: ratio of CC50 to EC50; as to activity class in terms of SI-values (HSV-1): key: inactive (SI < 2); active (SI ≥ 2)
Experimental: (§1) Vero cells (derived from the kidney of a normal African green monkey) were obtained from the American Type Culture Collection (ATCC, Manassas, VA, USA). The viral strains used were GHSV-UL46 for HSV-1 and the G strain for HSV-2. The Vero cells were propagated in Dulbecco’s modified Eagle’s medium (DMEM) supplemented with 10% heat-inactivated foetal bovine serum (FBS), 1% L-glutamine, HEPES buffer and 50 µg/mL gentamycin. All cells were maintained at 37 °C in a humidified atmosphere with 5% CO2 and were subcultured two times a week.
(§2) The antiviral screening was performed using a cytopathic effect inhibition assay at the Regional Center for Mycology and Biotechnology (RCMB, Al-Azhar University, Cairo, Egypt). This assay was selected to show specific inhibition of a biological function, that is, a cytopathic effect in susceptible mammalian cells. In brief, monolayers of 10,000 Vero cells adhering at the bottom of the wells in a 96-well microtiter plate were incubated for 24 h at 37 °C in a humidified incubator with 5% CO2. The plates were washed with fresh DMEM and challenged with 10^4 doses of herpes simplex 1 or 2 virus, and then the cultures were simultaneously treated with two-fold serial dilutions of the tested compound, starting from 500 µg/mL and going up to about 2 µg/mL (500, 250, 125, 62.5, …, 1.95 µg/mL) in a fresh maintenance medium; following this, they were incubated at 37 °C for 48 h. An infection control, as well as an untreated Vero cell control were made in the absence of tested compounds. […] Antiviral activity was determined by the inhibition of the cytopathic effect compared to a control, that is, the protection offered by the tested compound to the cells was scored. Three independent experiments were assessed, each containing four replicates per treatment.
(§3) After the incubation period, the media was aspirated, and then the cells were stained with a 1% crystal violet solution for 30 min. Thereafter, all excess stain was removed by rinsing the plates with tap water. The plates were allowed to dry, and then glacial acetic acid (30%) was added to all wells and mixed thoroughly. The absorbance of the plates was measured after gentle shaking on a microplate reader (Tecan Inc., Morrisville, NC, USA), at 590 nm. The viral inhibition rate was calculated as follows: [(ODtv − ODcv)/(ODcd − ODcv)] × 100% where ODtv, ODcv and ODcd indicate the absorbance of the tested compounds with virus-infected cells, the absorbance of the virus control and the absorbance of the cell control, respectively.
EC50 values were determined directly from the curve obtained by plotting the inhibition of the virus yield against the concentration of the samples. […] This index is referred to as a therapeutic index, and it was also used to determine whether a compound warranted further study.

HSV-2 = test: cytopathic effect inhibition assay against HSV-2 in Vero cells; format: cell-based, herpes simplex virus 2 (G strain); settings: for EC50 / HSV-2 EC50: 48 h; for EC50: read-out: HSV-2 EC50; for antiviral activity against HSV-2 in words: in comparison with compounds 14–16; for HSV-2 SI: ratio of CC50 to EC50
Experimental: as §1, §2, §3
EC50 values were determined directly from the curve obtained by plotting the inhibition of the virus yield against the concentration of the samples. The selectivity index (SI) was calculated from the ratio of CC50 to EC50 in order to determine whether each compound had sufficient antiviral activity that exceeded its level of toxicity. This index is referred to as a therapeutic index, and it was also used to determine whether a compound warranted further study.

[1] = cytotoxicity evaluation using viability assay (crystal violet); format: cell-based, African green monkey; settings: African green monkey, Vero cells
Experimental: as §1
(§4) The Vero cell lines in the cytotoxicity assay were seeded in 96-well plates at a cell concentration of 1 × 10^4 cells per well in 100 µL of the growth medium. Fresh medium containing different concentrations of the tested sample was added after 24 h of seeding. Serial two-fold dilutions of the tested compound were added to confluent cell monolayers dispensed into 96-well, flat-bottomed microtiter plates (Falcon, Jersey, NJ, USA) using a multichannel pipette. The microtiter plates were incubated at 37 °C in a humidified incubator with 5% CO2 for a period of 48 h. Three wells were used for each concentration of the tested sample. Control cells were incubated without test samples and with or without DMSO. The small percentage of DMSO present in the wells (maximal 0.1%) was not found to affect the experiment.
(§5) After the end of the incubation period, the viable cell yield was determined by a colorimetric method. In brief, the process of treatment the media with crystal violet solution and measurement of absorbance at 590 nm using a microplate reader was mentioned above. The absorbance was proportional to the number of surviving cells in the culture plate. All the results were corrected for background absorbance detected in wells without added stain. Treated samples were compared with the cell control in the absence of the tested compounds. All experiments were carried out in triplicate. The cell cytotoxicity effect of each tested compound was calculated.
(§6) Statistics were done using a one-way ANOVA test, and the percentage cell viability was calculated using Microsoft Excel®, as follows: % Cell viability = [(Mean Abscontrol− Mean Abstest metabolite)/Mean Abscontrol] × 100 where Abs equals the absorbance at 590 nm. The CC50 was estimated from graphic plots and the STATA statistical analysis package was used for the drawing of the dose response curve, in order to calculate CC50. Concerning antiviral evaluation, all experiments and data analysis were performed in RCMB, Al-Azhar University, Cairo, Egypt.

Vero cells = test: as above; format: cell-based, African green monkey; settings: 48 h
Experimental: as §1, §4, §5, §6

[2] = Vero cells, cytopathic effect inhibition

SMILES	EC50 (HSV-1)	EC50 (HSV-2; Human alphaherpesvirus 2, Vero)	CC50 at 48 h [1]	HSV-1 EC50 (HSV-1)	HSV-2 EC50 (HSV-2; [2])	CC50 (Vero cells)	antiviral activity against HSV-1 in words (HSV-1)	HSV-1 SI (HSV-1)	antiviral activity against HSV-2 in words (HSV-2)	HSV-2 SI (HSV-2)	activity class in terms of SI-values (HSV-1) (HSV-1; virus not named, agrees with HSV-1 SI of Table 2)	EC50 (HSV-2; Human alphaherpesvirus 2, Vero cells, cytopathic effect inhibition)
NN1C(=O)c2cccc3cccc(c23)C1=O [Parent, 2-amino-1H-benzo[de]isoquinoline-1,3-dione]	> 500 µg/mL	> 500 µg/mL	320 ± 24 µg/mL (≈ 1510 µM)	–	–	–	–	–	–	–	–	–
CN(C)c1ccc(C=NN2C(=O)c3cccc4cccc(c34)C2=O)cc1 [Compound 8]	–	–	–	>500 µg/mL	>500 µg/mL	289 ± 13 µg/mL (≈ 842 µM)	–	–	–	–	–	–
O=C1c2ccccc2C(=O)N1N1C(=O)c2cccc3cccc(c23)C1=O [Compound 21]	–	–	–	102 ± 5.8 µg/mL	374 ± 3.7 µg/mL	490 ± 21 µg/mL (≈ 1430 µM)	good antiviral effect	4.8	low activity	1.3	–	–
COc1ccc(C=NN2C(=O)c3cccc4cccc(c34)C2=O)c(OC)c1 [Compound 10]	–	–	–	149 ± 5.3 µg/mL	416 ± 8.2 µg/mL	380 ± 16 µg/mL (≈ 1050 µM)	low activity	2.6	low activity	0.9	active	–
CC=NN1C(=O)c2cccc3cccc(c23)C1=O [Compound 1]	–	–	–	>500 µg/mL	>500 µg/mL	375 ± 25 µg/mL (≈ 1570 µM)	–	–	–	–	–	–
O=C1c2cccc3cccc(c23)C(=O)N1n1c(=O)c2cc3c(=O)oc(=O)c3cc2c1=O [Compound 23]	–	–	–	176 ± 2.4 µg/mL	>500 µg/mL	412 ± 18 µg/mL (≈ 999 µM)	low activity	2.3	–	–	–	–
Nc1nc2c(ncn2COCCO)c(=O)[nH]1 [Acyclovir, reference compound]	1.8 ± 0.2 µg/mL (≈ 7.99 µM)	–	600 ± 18 µg/mL (≈ 2660 µM)	–	–	–	–	–	–	–	–	3.4 ± 0.6 µg/mL (≈ 15.1 µM)
